From patent US7732622B2, “Naphthalene derivatives” (Glaxo Group Limited, priority 2001, dated 2010)

These compounds were tested against T1, human EP4 receptor (Homo sapiens, UniProt P35408) (assay: Human EP4 Scintillation Proximity Assay (radioligand binding)). Details: not given.
T1 construct: expressed in transfected cells; host or cells: CHO cells infected with recombinant Semliki Forest Virus (SFV-1) particles; membranes prepared
T1 sequence (P35408 whole entry): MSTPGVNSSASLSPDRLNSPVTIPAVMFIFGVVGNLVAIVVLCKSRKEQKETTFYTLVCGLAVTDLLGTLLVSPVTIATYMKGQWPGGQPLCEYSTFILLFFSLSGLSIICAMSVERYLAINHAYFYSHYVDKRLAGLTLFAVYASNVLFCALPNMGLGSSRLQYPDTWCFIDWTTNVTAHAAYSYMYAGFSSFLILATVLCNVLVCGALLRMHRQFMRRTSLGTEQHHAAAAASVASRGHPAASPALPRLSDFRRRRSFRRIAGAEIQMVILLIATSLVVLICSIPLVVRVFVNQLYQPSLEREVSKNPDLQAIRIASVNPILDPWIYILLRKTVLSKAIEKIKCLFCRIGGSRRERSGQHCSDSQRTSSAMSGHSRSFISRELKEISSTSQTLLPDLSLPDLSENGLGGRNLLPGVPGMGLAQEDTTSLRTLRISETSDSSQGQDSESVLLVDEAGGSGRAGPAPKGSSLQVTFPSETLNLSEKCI
Experimental: Quantification of radioligand binding by scintillation proximity assay (SPA) is a long-established principle. Briefly, the affinity of novel compounds for a receptor is assessed by the specific competition between known quantities of radiolabelled ligand and novel compound for that receptor. Increasing concentrations of novel compound reduce the amount of radiolabel that binds to the receptor. This gives rise to a diminishing scintillation signal from SPA beads coated with membranes that bear the receptor. The signal may be detected with a suitable scintillation counter and the data generated may be analysed with suitable curve-fitting software.
The human EP4 SPA assay (hereafter referred to as ‘the assay’) utilises membranes prepared from Chinese Hamster Ovary (CHO cells) infected with Semliki Forest Virus (SFV). Genetically engineered SFV-1 viral particles containing the genetic sequence of the human EP4 receptor were used to infect CHO cells resulting in expression of the receptor protein in cellular membranes. Cells washed free of media are homogenised in a pH-buffered medium containing peptidase inhibitors. A suitable buffer is of the following composition: 50 mM HEPES, 1 mM EDTA, 25 μg/ml bacitracin, 100 μM leupeptin, 1 mM PMSF, 2 μM Pepstatin A, pH adjusted to 7.4 with KOH. Following removal of cell debris by a low-speed centrifugation, a pellet of membranes is prepared by a high-speed (48000 g) centrifugation of the resulting supernatant. Membrane suspensions such as that described may be stored at −80° C. until used.
For assay, membranes expressing human EP4 receptors are diluted in a pH-buffered medium and mixed with SPA beads coated with a suitable substance to facilitate the adhesion of membranes to the beads. The concentrations of membrane protein and SPA beads chosen should result in SPA binding signal of at least 300 corrected counts per minute (CCPM) when tritiated radioligand at a concentration close to its Kd (affinity value) is combined with the mixture. Non-specific binding (nsb) may be determined by competition between the radiolabelled ligand and a saturating concentration of unlabelled ligand. In order to quantify the affinity of novel EP4 receptor ligands, compounds are diluted in a stepwise manner across the wells of a 96-well plate. Radioligand, novel compound, and unlabelled ligand are then added to a 96-well plate suitable for the measurement of SPA binding signals prior to the addition of bead/membrane mixture to initiate the binding reaction. Equilibrium may be achieved by incubation at room temperature for 120 minutes prior to scintillation counting. The data so generated may be analysed by means of a computerised curve-fitting routine in order to quantify the concentration of compound that displaces 50% of the specific radioligand binding (IC50). The affinity (pKi) of the novel compound may be calculated from the IC50 by application of the Cheng-Prusoff correction. Suitable reagents and protocols are: reaction buffer containing 50 mM HEPES, 10 mM MgCl2, pH adjusted to 7.4 with KOH; SPA beads coated with wheatgerm agglutinin; 1.25 nM [^3H]-prostaglandin E2 as radioligand; 10 μM prostaglandin E2 as unlabelled ligand; a three-fold dilution series of novel compound starting at 10 μM and ending at 0.3 nM is adequate.
For `CC(C)Oc1c2c(c(OC(C)C)c3ccccc13)C(=O)N(c1ccc(CC(=O)O)cc1)C2` [Example 4, [4-(4,9-Di-isopropoxy-1-oxo-1,3-dihydro-2H-benzo[f]isoindol-2-yl)phenyl]acetic acid], the Ki was ≤ 1 µM. `CCCOc1c2c(c(OCCC)c3ccccc13)C(=O)N(c1ccc(CC(=O)O)cc1)C2` [Example 5, [4-(4,9-Dipropoxy-1-oxo-1,3-dihydro-2H-benzo[f]isoindol-2-yl)phenyl]acetic acid] was tested, and the Ki was ≤ 1 µM. For `CCOc1c2c(c(OCC)c3ccccc13)C(=O)N(c1ccc(CC(=O)O)cc1)C2=O` [Example 12, [4-(4,9-Diethoxy-1,3-dioxo-1,3-dihydro-2H-benzo[f]isoindol-2-yl)phenyl]acetic acid], the Ki was ≤ 1 µM.

Same assay, conditions: SPA, membranes of CHO cells expressing human EP4 receptor, 1.25 nM [3H]-prostaglandin E2 as radioligand; pKi from IC50 by Cheng-Prusoff correction; read-out: pKi at EP4 receptors (converted)
In the case of `COc1c2c(c(OC)c3ccccc13)C(=O)N(c1ccc(CC(=O)O)cc1)C2` [Example 1, [4-(4,9-Dimethoxy-1-oxo-1,3-dihydro-2H-benzo[f]isoindol-2-yl)phenyl]acetic acid], the Ki is reported as ≤ 1 µM. `CC(C)Oc1c2c(c(OC(C)C)c3ccccc13)C(=O)N(c1ccc(CC(=O)O)cc1)C2=O` [Example 13, [4-(4,9-Di-isopropoxy-1,3-dioxo-1,3-dihydro-2H-benzo[f]isoindol-2-yl)phenyl]acetic acid] was tested, and the Ki was ≤ 1 µM. `CCCOc1c2c(c(OCCC)c3ccccc13)C(=O)N(c1ccc(CC(=O)O)cc1)C2=O` [Example 14, [4-(4,9-Dipropoxy-1,3-dioxo-1,3-dihydro-2H-benzo[f]isoindol-2-yl)phenyl]acetic acid] was tested, and the Ki was ≤ 1 µM. For `CCOc1c2c(c(OC(C)C)c3ccccc13)C(=O)N(c1ccc(CC(=O)O)cc1)C2=O` [Example 17, [4-(4-Ethoxy-9-isopropoxy-1,3-dioxo-1,3-dihydro-2H-benzo[f]isoindol-2-yl)phenyl]acetic acid], the Ki was ≤ 1 µM.
